Measurements as given in patent publication US7829575B2, “Methods for treating androgen receptor related disorders” (University of Cincinnati, priority 2006, dated 2010).

Assays:
LNCaP cells [1] = experiment: PSA secretion, ELISA of culture supernatant; type: cell-based
Description: PSA in the culture supernatant is determined by using an enzyme-linked immunosorbent assay (ELISA) kit. PSA levels are normalized by cell density.

LNCaP cells [2] = experiment: Expression of AR-regulated genes, quantitative RT-PCR (Table 1); type: cell-based; details: DL3 20 μM for 24 hr
Description: To evaluate the specificity of the effects of DL3, expression of several other genes are determined by quantitative RT-PCR. […] In contrast, DL3 enhances expression of prostate-specific membrane antigen (PSMA), which is repressed by AR activation.

LNCaP cells [3] = experiment: PSA and AR mRNA expression, RT-PCR; type: cell-based; details: 6 hr
LNCaP-Nilut-R cells = experiment: Growth of Nilut-refractory LNCaP cells, MTT; type: cell-based; details: 10 μM, 4 days, MTT (FIG. 2F)
Excerpt: Viable cells are stained with MTT (3-(4,5-dimethylthiazol-2-yl)-2,5-diphenyltetrazolium bromide). *, **, and *** designate p<0.05, <0.01, and 0.001, respectively, compared with controls.

LNCaP cells [4] = experiment: AR protein stability and hsp70/hsp90 expression, western blotting; type: cell-based
Description: Cell lysates are prepared and analyzed by western blotting. […] To further determine how DL3 downregulates AR, LNCaP cells are incubated for 24 hr with DL3 in the absence or presence of proteasome inhibitor MG132.
Hsp70 and hsp90 are key molecular chaperones in cells. Along with several co-chaperones, hsp70 and hsp90 play critical roles in folding and assembling AR to a high-affinity ligand binding conformation and in regulating AR activation that occurs following hormone binding. Therefore, the possibility of whether the downregulation of AR protein by DL3 is mediated by its effects on hsp70 or hsp90 expression is investigated.
Thus, the effects of DL3 on hsp70 expression are further investigated in several other prostate cancer cell lines, including LAPC-4 (wildtype AR), 22Rv1 (mutant AR), and AR-negative cell lines PC-3, DU-145, PWE1-NB14 (ATCC), and PWE1-NB26 (ATCC). […] In FIG. 10, LAPC-4 (in SMEM) and all other (in CMEM) cells are treated for 24 hr and analyzed by western blotting. LNCaP cells are transfected for 24 hr with hsp70 or its control vector, then treated for 24 hr.

wildtype AR = molecular target: T1, wildtype AR (Homo sapiens, UniProt P10275); experiment: PSA promoter luciferase reporter in PC-3 cells co-transfected with AR; details: PC-3 cells transfected with wildtype AR, 20 μM, 1 nM DHT, 24 hr
T1 sequence (P10275 1-920): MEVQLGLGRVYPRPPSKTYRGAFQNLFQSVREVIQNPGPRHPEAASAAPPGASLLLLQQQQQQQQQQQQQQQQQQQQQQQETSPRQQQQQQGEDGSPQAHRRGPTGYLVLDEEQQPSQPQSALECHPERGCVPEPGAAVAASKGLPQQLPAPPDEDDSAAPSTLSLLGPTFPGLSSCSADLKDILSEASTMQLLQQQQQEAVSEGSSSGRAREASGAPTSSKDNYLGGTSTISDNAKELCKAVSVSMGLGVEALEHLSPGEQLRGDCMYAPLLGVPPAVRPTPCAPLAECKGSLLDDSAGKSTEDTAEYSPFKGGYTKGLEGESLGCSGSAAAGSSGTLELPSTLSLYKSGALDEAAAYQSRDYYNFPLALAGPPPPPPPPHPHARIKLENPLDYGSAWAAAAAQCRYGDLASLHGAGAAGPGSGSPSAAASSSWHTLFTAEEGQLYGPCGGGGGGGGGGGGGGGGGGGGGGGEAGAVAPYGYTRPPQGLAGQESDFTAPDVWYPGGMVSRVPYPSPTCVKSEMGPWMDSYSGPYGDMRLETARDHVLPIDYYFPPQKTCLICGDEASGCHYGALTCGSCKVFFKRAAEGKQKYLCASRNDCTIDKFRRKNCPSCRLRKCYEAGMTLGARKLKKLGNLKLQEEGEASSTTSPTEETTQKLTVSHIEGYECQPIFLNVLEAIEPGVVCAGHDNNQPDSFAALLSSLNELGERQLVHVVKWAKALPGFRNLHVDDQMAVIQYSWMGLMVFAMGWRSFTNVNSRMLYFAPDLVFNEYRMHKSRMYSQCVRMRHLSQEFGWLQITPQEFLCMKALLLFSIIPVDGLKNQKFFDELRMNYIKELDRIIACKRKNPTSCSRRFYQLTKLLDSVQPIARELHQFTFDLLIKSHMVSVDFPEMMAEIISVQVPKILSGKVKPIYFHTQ

LNCaP cells [5] = experiment: Expression of AR-regulated genes, quantitative RT-PCR (Table 1); type: cell-based; details: data not shown
LNCaP-ARR2-GFP cells = experiment: AR-regulated GFP expression in LNCaP-ARR2-GFP cells; type: cell-based; details: SMEM, absence of DHT; DL3 at 25 nM or 20 μM
LNCaP-AI cells = experiment: Growth of androgen-independent LNCaP-AI cells, MTT; type: cell-based; details: SMEM, four days
Description: See, for example, FIG. 3 where LNCaP-A1 cells in SMEM and 22Rv1 cells in CMEM are cultured for four days with DL3, followed by MTT staining and 22Rv1 cells are obtained from ATCC.

[6] = 20 μM DL3, time course to 48 hr (FIG. 9A)

CC(C)(C)c1ccc(OCCSc2nc(=O)cc(N)[nH]2)cc1 [DL3, 6-amino-2-(2-4-tert-butyl-phenoxy)-ethylsulfanyl-1H-pyrimidin-4-one]
PSA production in parental LNCaP cells (LNCaP cells [1]; 1 nM DHT, 10 μM, 48 hr (FIG. 5D)): inhibits PSA production | reduction of DHT-induced production of PSA (LNCaP cells [1]; 5 μM, 48 hr): approximately 50% | PSA production under androgen-free conditions (LNCaP cells [1]; 20 μM, no DHT, 48 hr): does not induce PSA production | inhibition at 20 µM (LNCaP cells [1]; Homo sapiens, LNCaP, 48 h, read-out: inhibition of DHT-induced PSA production): ~90% | inhibitory effects on DHT-induced PSA production, dose response (LNCaP cells [1]; various concentrations of DL3 and DHT (FIG. 5B)): dose-dependent | PSA production stimulated by Nilut (LNCaP cells [1]; various concentrations of DL3 and Nilut (FIG. 5C)): blocked | IL-8 expression DL3/CTR (%) (LNCaP cells [2]): 107% | IL-8 expression level relative to β-actin (LNCaP cells [2]): 8.59e−04 | PSA expression DL3/CTR (%) (LNCaP cells [2]): 3% | PSA expression level relative to β-actin (LNCaP cells [2]): 3.03e−02 | PSCA expression DL3/CTR (%) (LNCaP cells [2]): 55% | PSCA expression level relative to β-actin (LNCaP cells [2]): 1.90e−04 | PSMA expression DL3/CTR (%) (LNCaP cells [2]): 379% | PSMA expression level relative to β-actin (LNCaP cells [2]): 1.35e−01 | hK2 expression DL3/CTR (%) (LNCaP cells [2]): 18% | hK2 expression level relative to β-actin (LNCaP cells [2]): 4.05e−03 | AR mRNA expression (LNCaP cells [3]): not significantly altered | growth of LNCaP-Nilut-R cells (LNCaP-Nilut-R cells): significantly inhibits growth | time after exposure at which AR downregulation can be observed (LNCaP cells [4]; 20 μM): 8 h | time after treatment at which reduction of hsp70 starts (LNCaP cells [4]; 20 μM DL3): 4 h | expression of hsp70 (LNCaP cells [4]; [6]): reduced | expression of hsp90 (LNCaP cells [4]; [6]): not | partial reversal by DHT of the CHX-diminished AR expression (LNCaP cells [4]; 24 hr with DHT, DL3 and CHX (FIG. 9B, lane 7 vs. lane 6)): also blocked | AR downregulation by DL3 under overexpression of hsp70 (LNCaP cells [4]; LNCaP cells transfected 24 hr with hsp70, then treated 24 hr): not able to protect AR downregulation | elevation of AR and PSA expression by DHT (LNCaP cells [4]; SMEM, 24 hr (FIG. 9B, lane 4 vs. lane 3)): blocked | AR protein levels (LNCaP cells [4]; dose-dependent): downregulates AR protein levels | DHT-induced activation of PSA promoter activity (wildtype AR): significantly inhibits | PSMA expression at the protein level (LNCaP cells [5]): Enhancement of PSMA expression | GFP expression (AR agonist activity) (LNCaP-ARR2-GFP cells): does not induce GFP expression | growth of androgen-independent LNCaP-AI cells (LNCaP-AI cells): suppressed
